Literature values, collected in patent publication US20170367972A1, “Formulations and Methods of Treatment for Treating Nail Fungal Infections” (priority 2016, published 2017).

Key:
[1] = test system: Candida albicans
[2] = test system: dermatophytes
[3] = test system: nondermophytic molds
[4] = test system: dermatophytes; remark: listed apart in the source
[5] = test system: Candida spp.

| Compound | activity against Candida albicans [1] | activity against dermatophytes [2] | activity against nondermophytic molds [3] | effectiveness in dermatophytic infections [4] | activity against Candida spp. [5] |
| --- | --- | --- | --- | --- | --- |
| CN(C/C=C/C#CC(C)(C)C)Cc1cccc2ccccc12 [Terbinafine, terbinafine] | only fungistatic activity | fungicidal activity | – | – | – |
| COC1=CC(=O)C[C@@H](C)[C@]12Oc1c(Cl)c(OC)cc(OC)c1C2=O [griseofulvin] | – | active in vitro against most dermatophytes | no activity | effective only for dermatophytic infections | no activity |
